“Also recorded” adds a separate entry of the source.
Assays:
Type in all cases: in vivo, mouse
epidermal COX-2 protein = test: TPA-induced epidermal COX-2 protein expression (western blot)
Procedure: (§1) FIG. 4. Inhibitory effect of Lupeol on TPA-induced epidermal ODC, iNOS and COX-2 protein expression in CD-1 mice: At different times after treatment, the animals were sacrificed, epidermal protein lysate was prepared, and ODC and COX-2 protein expression were determined. Equal loading of protein was confirmed by stripping the immunoblot and reprobing it for β-actin. The immunoblots shown here are representative of three independent experiments with similar results. The values above each lane indicate relative density of the band normalized to β-actin.
The animals were shaved on the dorsal side of the skin, divided into four groups and treated topically on the shaved area with either 0.4 ml vehicle (acetone), or TPA (3.2 nmol/0.4 ml acetone/animal, v/v), or Lupeol (1 or 2 mg/0.2 ml acetone/animal, w/v) followed 30 min later with TPA (3.2 nmol/0.2 ml acetone/animal). Animals were sacrificed at different times point i.e. 6, 12, 24 and 48 h post TPA treatment. The epidermis was separated from the whole skin and homogenized in 0.1 M Tris-HCl buffer (pH 7.2) using a Polytron tissue homogenizer (Brinkmann Instruments, Westbury, N.Y., USA) at 100,000×g supernatant, and microsomal fractions were prepared as described earlier (Katiyar and Mukhtar, 1997). The sample of 6 h treatment group was used to assess the ODC activity as this time point has previously been shown for optimal induction of the enzyme (Katiyar er al., 1996).
Epidermis from the whole skin was separated as described earlier (Katiyar et al., 1999) and was homogenized in ice-cold lysis buffer [50 mM Tris-HCl, 150 mM NaCl, 1 mM EGTA, 1 mM EDTA, 20 mM NaF, 100 mM Na3VO4, 0.5% NP-40, 1% Triton X-100, 1 mM PMSF (pH 7.4)] with freshly added protease inhibitor cocktail, Protease Inhibitor Cocktail Set III (Calbiochem, La Jolla, Calif., USA). The homogenate was then centrifuged at 14,000×g for 25 minutes at 4° C. and the supernatant (total cell lysate) was collected, aliquoted and stored at −80° C. For the preparation of nuclear lysate, 0.2 g of the epidermis was homogenized in 1 ml of ice-cold phosphate-buffered saline (pH 7.6) and centrifuged at 12,000×g for 5 min at 4° C. […] The protein content in the lysates was measured by DC BioRad assay (BioRad Laboratories, Hercules, Calif.) as per the manufacturer's protocol.
(§2) For western blot analysis, 40 μg of the protein was resolved over 8-12% polyacrylamide gels and transferred to a nitrocellulose membrane. […] This was followed by incubation with anti-mouse or anti-rabbit secondary antibody horse-radish peroxidase (Amersham Life Sciences, Inc., USA) for 1 h and then washed several times and detected by chemiluminescence ECL kit, (Amersham Life Sciences, Inc., USA) and autoradiography using XAR-5 film obtained from Eastman Kodak Co. (Rochester, N.Y., USA). […]

IKKα protein = test: TPA-induced activation of IKKα (western blot); details: highest dose of Lupeol, 12 h time point
Procedure: FIG. 6. Inhibitory effect of Lupeol on TPA-induced activation of IKKα, and phosphorylation and degradation of IκBα in CD-1 mice: At different times after treatment, the animals were sacrificed, epidermal cytosolic was prepared, and protein expression was determined. Equal loading was confirmed by stripping the immunoblot and reprobing it for β-actin. The immunoblots shown here are representative of three independent experiments with similar results. The values above each lane indicate relative density of the band normalized to β-actin.
(§3) The animals were shaved on the dorsal side of the skin, divided into four groups and treated topically on the shaved area with either 0.4 ml vehicle (acetone), or TPA (3.2 nmol/0.4 ml acetone/animal, v/v), or Lupeol (1 or 2 mg/0.2 ml acetone/animal, w/v) followed 30 min later with TPA (3.2 nmol/0.2 ml acetone/animal). […]
Epidermis from the whole skin was separated as described earlier (Katiyar et al., 1999) and was homogenized in ice-cold lysis buffer [50 mM Tris-HCl, 150 mM NaCl, 1 mM EGTA, 1 mM EDTA, 20 mM NaF, 100 mM Na3VO4, 0.5% NP-40, 1% Triton X-100, 1 mM PMSF (pH 7.4)] with freshly added protease inhibitor cocktail, Protease Inhibitor Cocktail Set III (Calbiochem, La Jolla, Calif., USA). […] The protein content in the lysates was measured by DC BioRad assay (BioRad Laboratories, Hercules, Calif.) as per the manufacturer's protocol. […]

epidermal iNOS protein = test: TPA-induced epidermal iNOS protein expression (western blot)
Procedure: as §1
as §3, with “acetone/animal). Animals were sacrificed at different times point i.e. 6, 12, 24 and 48 h post TPA treatment.” for “acetone/animal).”
Epidermis from the whole skin was separated as described earlier (Katiyar et al., 1999) and was homogenized in ice-cold lysis buffer [50 mM Tris-HCl, 150 mM NaCl, 1 mM EGTA, 1 mM EDTA, 20 mM NaF, 100 mM Na3VO4, 0.5% NP-40, 1% Triton X-100, 1 mM PMSF (pH 7.4)] with freshly added protease inhibitor cocktail, Protease Inhibitor Cocktail Set III (Calbiochem, La Jolla, Calif., USA). […] The protein content in the lysates was measured by DC BioRad assay (BioRad Laboratories, Hercules, Calif.) as per the manufacturer's protocol.
as §2

CWR22Rv1 cells = test: CWR22Rv1 xenograft tumor growth in athymic nude mice; details: Lupeol 1 mg/animal i.p. three times a week, vs control mice
Procedure: FIG. 18 depicts effect of lupeol treatment on the growth of tumors from CWR22Rv1 cells implanted in nude mice. The growth was measured in terms of average volume of tumors as a function of time. Data is represented as mean±SD. * indicates p<0.05 (B) Number of mice remaining with tumor volumes<1000 mm^3 after treatment with corn oil alone or Lupeol for indicated weeks. * indicates p<0.01
To determine, whether lupeol could reduce the tumorigenicity of prostate cancer cells in animal model, androgen-dependent prostate cancer cells CW22Rv1, were implanted in a Athymic nude mouse xenograft model. Mice were given i.p. injection of Lupeol (1 mg/animal) three times a week. Tumor growth was measured weekly in terms of volume of tumors as function of time.

C=C(C)[C@@H]1CC[C@]2(C)CC[C@]3(C)[C@H](CC[C@@H]4[C@@]5(C)CC[C@H](O)C(C)(C)[C@@H]5CC[C@]43C)[C@@H]12 [Lupeol, Lup-20(29)-en-3β-ol]
inhibition in TPA-caused increased epidermal COX-2 protein expression (epidermal COX-2 protein; Lupeol 1 mg/animal): 40% | TPA-induced COX-2 protein level (epidermal COX-2 protein; Lupeol 2 mg/animal): restored the level of TPA-induced COX-2 protein almost to its basal level | epidermal COX-2 protein expression after Lupeol alone (epidermal COX-2 protein; Lupeol alone 2 mg): did not produce any change | inhibition in TPA induced activation of IKKα protein (IKKα protein): ~95% | inhibition against TPA-induced epidermal iNOS protein expression (densitometry) (epidermal iNOS protein; Lupeol 2 mg/animal): 74% | epidermal iNOS protein expression after Lupeol alone (epidermal iNOS protein; Lupeol alone 2 mg): did not produce any change | tumor growth (tumor volume as function of time) (CWR22Rv1 cells): significant reduction in tumor growth; also recorded: significantly Lower than control mice
